Here are results for 15 compounds from ChEMBL document CHEMBL3272194, “Antiinflammatory activity of some 2,3-dihydrobenzofuran-5-acetic acids and related compounds” (J Med Chem, 1976).

The subject of series [1] is Rattus norvegicus. As to the kind of experiment: Antiinflammatory activity in Wistar rat assessed as reduction in carrageenan-induced paw edema at 20 mg/kg, po treated 2 hrs before carrageenan challenge measured after 3 hrs. It counts as functional.
Series [2] has as its system Rattus norvegicus. As to the kind of experiment: Antiinflammatory activity in Wistar rat assessed as reduction in carrageenan-induced paw edema at 100 mg/kg, po treated 2 hrs before carrageenan challenge measured after 3 hrs. It counts as functional. A general note: The carrageenan paw model is a standard test of acute inflammation.
The subject of series [3] is Rattus norvegicus. In words: Toxicity in po dosed Wistar rat assessed as gastric irritation at 20 to 100 mg/kg, po. The following applies: in vivo. It counts as organism-based, Stomach. More on the design: dose 20-100 mg/kg, route oral.
For series [4], the system named is Rattus norvegicus. In words: Antiinflammatory activity in po dosed Wistar rat assessed as reduction in carrageenan-induced paw edema treated 2 hrs before carrageenan challenge measured after 3 hrs. It counts as functional.
Series [5] can be described thus: Toxicity in po dosed Wistar rat. The series is classed as organism-based. The conditions noted are these: in vivo.
In series [6] the test system is Rattus norvegicus. In words: Antiinflammatory activity in Wistar rat assessed as reduction in carrageenan-induced paw edema at 10 mg/kg, po treated 2 hrs before carrageenan challenge measured after 3 hrs. It counts as functional.
In series [7] the test system is Rattus norvegicus. As to the kind of experiment: Toxicity in po dosed Wistar rat assessed as gastric irritation at 10 to 50 mg/kg, po. More on the design: dose 10-50 mg/kg, route oral. The following applies: in vivo. The series is classed as organism-based, Stomach.
Series [8] has as its system Rattus norvegicus. As to the kind of experiment: Antiinflammatory activity in Wistar rat assessed as reduction in carrageenan-induced paw edema at 50 mg/kg, po treated 2 hrs before carrageenan challenge measured after 3 hrs. The series is classed as functional.

One may read the inhibition in vivo as the percentage by which the read-out fell short of the control. For the compound `CC1(C)Cc2cc(CC(=O)NO)ccc2O1`, in series [1], the inhibition in vivo at 20 mg/kg amounted to 5%. The inhibition in vivo at 100 mg/kg in series [2] came out at 9%. In series [3], the Activity entry is “Toxic”.

Take `CC1(C)Cc2cc(CC(=O)O)ccc2O1`: in series [1], the inhibition in vivo at 20 mg/kg worked out at 25%. Further, the inhibition in vivo at 100 mg/kg in series [2] turned out to be 32%. The Activity entry in series [3] is reported as “Toxic”.

As a reminder, the ED50 is the dose at which the effect has come halfway, by size or by number of responders. Usually LD50 stands for the dose expected to kill half of the subjects tested. The low end stands for a more toxic substance, the high end for a less toxic substance. As for `CC(C(=O)O)c1cc(Cl)c2c(c1)CC(C)(C)O2` (configuration not stated), the inhibition in vivo at 20 mg/kg in series [1] stood at 45%. In addition, in series [2], the inhibition in vivo at 100 mg/kg amounted to 58%. The 50% effective dose (ED50) in series [4] was found to be 45 mg/kg. The compound also had an LD50 in series [5] of 720 mg/kg. Also, in series [3], the Activity entry is recorded as “Toxic”.

Regarding `CC1(C)Cc2cc(CC(=O)NO)cc(Cl)c2O1`, the inhibition in vivo at 20 mg/kg in series [1] worked out at 7%. Also, the inhibition in vivo at 100 mg/kg in series [2] turned out to be 13%. Moreover, the Activity entry in series [3] was “Toxic”.

In the case of `CCCCC1C(=O)N(c2ccccc2)N(c2ccccc2)C1=O` [PHENYLBUTAZONE], the inhibition in vivo at 10 mg/kg in series [6] was 24%. For the same compound, the Activity entry in series [7] is “Toxic”. The inhibition in vivo at 50 mg/kg in series [8] came to 51%.

As to `CC1Cc2cc(CC(=O)O)cc(Cl)c2O1` (configuration not stated), the inhibition in vivo at 20 mg/kg in series [1] turned out to be 20%. For the same compound, the inhibition in vivo at 100 mg/kg in series [2] was 27%. For the same compound, the Activity entry in series [3] was “Toxic”.

In the case of `CC1(C)Cc2cc(CC(=O)O)cc(Cl)c2O1`, the inhibition in vivo at 20 mg/kg in series [1] amounted to 30%. Moreover, the inhibition in vivo at 100 mg/kg in series [2] was found to be 37%. Also, the Activity entry in series [3] was “Toxic”.

Consider `CC1Cc2cc(CC(N)=O)cc(Cl)c2O1` (configuration not stated), for which the inhibition in vivo at 20 mg/kg in series [1] was 2%. The inhibition in vivo at 100 mg/kg in series [2] stood at 17%. For the same compound, the Activity entry in series [3] is on record as “Toxic”.

With `CC1(C)Cc2cc(C(=O)/C=C/C(=O)O)cc(Cl)c2O1`, the inhibition in vivo at 20 mg/kg in series [1] came to 9%. Also, the inhibition in vivo at 100 mg/kg in series [2] stood at 3%. For the same compound, the Activity result in series [3] is reported as “Toxic”.

On to `CC1(C)Cc2cc(CCCC(=O)O)cc(Cl)c2O1`, for which the inhibition in vivo at 20 mg/kg in series [1] is 32%. Besides, the inhibition in vivo at 100 mg/kg in series [2] was 32%. Besides, the Activity result in series [3] is given as “Toxic”.

On to `CC1(C)Cc2cc(CC(N)=O)cc(Cl)c2O1`, for which, in series [1], the inhibition in vivo at 20 mg/kg stood at 25%. Moreover, the inhibition in vivo at 100 mg/kg in series [2] is 31%. In addition, the Activity entry in series [3] is “Toxic”.

As to `CC1Oc2c(Cl)cc(CC(=O)O)cc2C1C.NC1CCCCC1` (configuration not stated), the inhibition in vivo at 20 mg/kg in series [1] was found to be 24%. In addition, the inhibition in vivo at 100 mg/kg in series [2] amounted to 30%. For the same compound, the Activity result in series [3] is listed as “Toxic”.

As to `CC1(C)Cc2cc(C(=O)CCC(=O)O)cc(Cl)c2O1`, the inhibition in vivo at 20 mg/kg in series [1] is 24%. In addition, in series [2], the inhibition in vivo at 100 mg/kg amounted to 37%. For the same compound, in series [3], the Activity result was “Toxic”.

In the case of `CC1(C)Cc2cc(CC(N)=O)ccc2O1`, the inhibition in vivo at 20 mg/kg in series [1] amounted to 15%. For the same compound, in series [2], the inhibition in vivo at 100 mg/kg came to 20%. Further, the Activity entry in series [3] is listed as “Toxic”.

Take `CC1Cc2cc(C(C)C(=O)O)cc(Cl)c2O1.NC1CCCCC1` (configuration not stated): the inhibition in vivo at 20 mg/kg in series [1] came to 35%. Besides, the inhibition in vivo at 100 mg/kg in series [2] was found to be 57%. In addition, in series [3], the Activity entry is reported as “Toxic”.
